Assay results reported in BigSolDB 2.1.

CCCCCCCCCCCCCCCc1cccc(O)c1
Details	solubility (mole fraction)
in acetone, 289.08 K	0.253
in acetone, 291.32 K	0.272
in acetone, 293.55 K	0.309
in acetone, 295.54 K	0.33
in acetone, 297.54 K	0.351
in acetone, 299.33 K	0.373
in ethanol, 291.47 K	0.158
in ethanol, 293.83 K	0.181
in ethanol, 295.56 K	0.199
in ethanol, 297.55 K	0.228
in ethanol, 299.15 K	0.252
in ethanol, 301.28 K	0.278
in ethyl acetate, 290.83 K	0.236
in ethyl acetate, 295.86 K	0.299
in ethyl acetate, 297.3 K	0.323
in ethyl acetate, 300.12 K	0.352
in ethyl acetate, 302.14 K	0.38
in n-butanol, 293.55 K	0.239
in n-butanol, 295.36 K	0.263
in n-butanol, 297.33 K	0.282
in n-butanol, 299.16 K	0.302
in n-butanol, 300.86 K	0.321
in n-butanol, 302.94 K	0.349
in tetrachloromethane, 288.46 K	0.0912
in tetrachloromethane, 290.45 K	0.101
in tetrachloromethane, 292.51 K	0.124
in tetrachloromethane, 294.42 K	0.15
in tetrachloromethane, 296.55 K	0.18
in tetrachloromethane, 298.36 K	0.21
in tetrachloromethane, 300.24 K	0.242
in toluene, 295.25 K	0.122
in toluene, 297.45 K	0.14
in toluene, 299.2 K	0.16
in toluene, 301.23 K	0.186
in toluene, 303.66 K	0.228
in toluene, 305.47 K	0.262
